Reference: patent US20180310564A1, “Mesoionic Compound” (Nippon Kayaku Kabushiki Kaisha, priority 2015, published 2018)
Counter-ions that a name gives are not always drawn.

Assays:
Assay type in all cases: in vivo
[1] = system: Cotton Aphid (Aphis gossypii); assay: Test (foliar spraying) for controlling cotton aphid; conditions: 120 h, 5 days after treatment
Procedure: A cucumber leaf cut to a diameter of 3.5 cm was placed on cotton wool moistened with water. Two adult cotton aphids were released there for offspring for 24 hours and the adult insects were then removed. […] After air-drying, the sample with cotton wool was placed in a plastic cup, which was covered with a lid and kept in a chamber at a constant temperature of 25° C. for rearing.

[2] = system: Sweetpotato whitefly (Bemisia tabaci); assay: Test (foliar spraying) for controlling sweetpotato whitefly; conditions: 120 h, foliar spraying on cucumber leaf, female adults, 5 days after treatment
Procedure: A cucumber leaf cut to a diameter of 6.0 cm was placed on cotton wool moistened with water. The diluent of the test compounds diluted to 200 ppm in an amount of 2 mL was sprayed onto the cucumber leaves with a spray tower. After air-drying, the cucumber leaf was placed in a plastic cup, and 20 female adult sweetpotato whiteflies were released there. The cup was covered with a lid and kept in a chamber at a constant temperature of 25° C. for rearing.

[3] = system: Diamondback Moth (Plutella xylostella); assay: Test (foliar dipping) for controlling diamondback moth; conditions: 72 h, foliar dipping of cabbage leaf, third instar larvae, 3 days after treatment
Procedure: A cabbage leaf cut to a diameter of 5.0 cm was dipped in the diluent of the test compounds diluted to 200 ppm in an amount of 20 mL and air-dried. After air-drying, the cabbage leaf was placed in a plastic cup, and 10 larvae of diamondback moths in the third instar larva were released there. The cup was covered with a lid and kept in a chamber at a constant temperature of 25° C. for rearing.

[4] = system: Brown Planthopper (Nilaparvata lugens); assay: Test (foliar dipping) for controlling brown planthopper; conditions: 120 h, rice seedlings dipped, 5 days after treatment
Procedure: […] After air-drying, the rice seedlings held with urethane in a glass cylinder having an inner diameter of 4.5 cm and a length of 14 cm were set up in a plastic cup containing 40 mL of water. Larvae of brown planthoppers in the third instar larva were released there. The cylinder was covered with a lid of medicine paper and kept in a chamber at a constant temperature of 25° C. for rearing.

[5] = system: Southern Yellow thrips (Thrips palmi); assay: Test (foliar spraying) for controlling southern yellow thrips; conditions: 72 h; 200 ppm, foliar spraying on cucumber leaf, first instar larvae, 3 days after treatment
Procedure: A cucumber leaf cut to a diameter of 1.5 cm was placed on cotton wool moistened with water. […] After air-drying, 5 larvae of southern yellow thrips in the first instar larva were released there. The sample with cotton wool was placed in a plastic cup, which was covered with a lid and kept in a chamber at a constant temperature of 25° C. for rearing.

[6] = system: Brown Planthopper (Nilaparvata lugens); assay: Test (root dipping) for controlling brown planthopper; conditions: 120 h, root dipping, 5 days after treatment
Procedure: (§1) Ten sampled rice seedlings held with urethane in a glass cylinder having an inner diameter of 4.5 cm and a length of 14 cm were set up in a plastic cup containing 40 mL of chemical solution diluted to a desired concentration. After 2 days, 10 larvae of brown planthoppers in the third instar larva were released in the glass cylinder. The glass cylinder was covered with a lid of medicine paper and kept in a chamber at a constant temperature of 25° C. for rearing.

[7] = system: Rice Leaf Beetle (Oulema oryzae); assay: Test (root dipping) for controlling rice leaf beetle; conditions: 4 days after treatment
Procedure: as §1, with “4” for “10”, “rice leaf beetle” for “brown planthoppers”, “late” for “third”

[8] = system: Rice Stem Borer (Chilo suppressalis); assay: Test (pot test) for controlling rice stem borer; conditions: 14 days after treatment
Procedure: The roots of five sampled rice seedlings were washed with water. The wettable powder prepared in accordance with Formulation Example 2 described above was wrapped in the roots to be planted in a Wagner pot of 1/10000 a. After 4 days from the treatment, a total of […] of rice stem borer were released per strain and reared in a plastic greenhouse with a room temperature set at 25° C. On 14 days after the treatment, the ratio of browning stem of seedlings for each strain and the ratio to untreated ones were calculated. Double system.

[9] = system: Inedorooimushi (Oulema oryzae); assay: Test (pot test) for controlling inedorooimushi; conditions: larvae released 20 days after treatment, 2 days after release
Procedure: The roots of five sampled rice seedlings were washed with water. The wettable powder prepared in accordance with Formulation Example 2 described above was wrapped in the roots to be planted in a Wagner pot of 1/10000 a. After 20 days from the treatment, 3 larvae of inedorooimushi in the late instar larva were released per strain and reared in a plastic greenhouse with a room temperature set at 25° C. On 2 days after the releasing of the insects, the mortality of the insect was calculated.

[10] = system: Brown Planthopper (Nilaparvata lugens); assay: Residual effect test (field experiment) for brown planthopper
Procedure: The roots of five sampled rice seedlings were washed with water. Subsequently, 25 mg of the wettable powder prepared in accordance with Formulation Example 2 described above was wrapped in the roots. Each strain was made from the five seedlings. In outdoor artificial paddy fields made from wooden frames having a size of 60 cm by 90 cm, 10 strains were planted, respectively. The artificial paddy field was shielded by an insect screen with a mesh size of 1 mm, so that invasion of harmful insects from the outside was prevented. Into the test system, 40 to 100 adult brown planthoppers were released at fixed intervals so as to cause damage to the rice. On 16 to 51 days after the treatment, the numbers of surviving insects and dead insects were measured to calculate the density index. The density index was obtained from the following expression.

[11] = system: Brown Winged Green Stink Bug (Plautia stali); assay: Test (greenhouse test) for controlling brown winged green stink bug; conditions: 100 ppm sprayed on apple fruit
Procedure: Using a commercially available hand spray, a chemical solution diluted to a concentration of 100 ppm was sprayed onto an apple fruit (cultivar: Fuji). After air-drying, the apple fruit was placed in a plastic cup, which was allowed to stand still for a specified number of […] in a plastic greenhouse with a room temperature set at 25° C. and with the natural light shining thereon. On 7 days after the treatment, 5 adult brown winged green stink bugs (without distinction between male and female) were released onto the treated fruit. On 4 days after the release of insects, the numbers of death and abnormality were observed and recorded. Triple system. Also, the fruit after examination was immersed in an acidic 0.5% fuchsine solution for 30 minutes, and then washed with water to measure the total number of sapping scars.

[12] = 5 adults released 7 days after treatment, triple system, 4 days after release

Cc1cccc(-c2c([O-])[n+](CCC#N)c3ccccn3c2=O)c1 [Compound 3, 1-(2-cyanoethyl)-2-hydroxy-4-oxo-3-(3-toluyl)-4H-pyrido[1,2-a]pyrimidinium inner salt]
mortality at 0.8 ppm ([1]; 0.8 ppm, foliar spraying): 100%
mortality at 200 ppm ([1]; 200 ppm, foliar spraying on cucumber leaf): ≥ 80%
mortality at 200 ppm [2]: ≥ 80%
mortality at 200 ppm [3]: ≥ 80%
mortality at 0.01 ppm ([4]; 0.01 ppm): 10%
mortality at 0.02 ppm ([4]; 0.02 ppm): 40%
mortality at 0.05 ppm ([4]; 0.05 ppm): 80%
mortality at 200 ppm ([4]; 200 ppm, third instar larvae): ≥ 80%
mortality at 200 ppm [5]: ≥ 80%
mortality at 0.025 ppm ([6]; 0.025 ppm): 50%
mortality at 0.05 ppm ([6]; 0.05 ppm): 60%
mortality at 0.1 ppm ([6]; 0.1 ppm): 100%
mortality at 1.6 ppm ([7]; 1.6 ppm, root dipping of rice seedlings, late instar larvae released after 2 days): 100%
mortality at 0.8 ppm ([7]; 96 h, 0.8 ppm, root dipping): 100%
Browning stem ratio (%) ([8]; 500 g/ha as wettable powder (Formulation Example 2) at rice roots, hatchlings released after 4 days): 0%
Ratio to untreated (%) ([8]; browning stem ratio relative to untreated, 500 g/ha): 0%
mortality at 125 g/ha ([9]; 125 g/ha): 33.3%
mortality at 250 g/ha ([9]; 250 g/ha): 50%
mortality at 500 g/ha ([9]; 500 g/ha as wettable powder at rice roots): 100%
Density index of Nilaparvata lugens ([10]; After 16 days, 25 mg wettable powder (Formulation Example 2) at roots per strain, outdoor artificial paddy field): 7.7
Density index of Nilaparvata lugens ([10]; After 23 days, 25 mg wettable powder at roots per strain, artificial paddy field): 0
Density index of Nilaparvata lugens ([10]; After 30 days, 25 mg wettable powder at roots per strain, artificial paddy field): 28.4
Density index of Nilaparvata lugens ([10]; After 37 days, 25 mg wettable powder at roots per strain, artificial paddy field): 23.8
Density index of Nilaparvata lugens ([10]; After 44 days, 25 mg wettable powder at roots per strain, artificial paddy field): 13.0
Density index of Nilaparvata lugens ([10]; After 51 days, 25 mg wettable powder at roots per strain, artificial paddy field): 88.5
Number of abnormal insects [11, 12]: 7
Number of dead insects [11, 12]: 6
Number of normal insects [11, 12]: 2
Total number of sheaths formed by stylet insertion ([11]; fruit stained with fuchsine after examination): 5
Proportion of abnormal insects and dead insects on 4 days after releasing insects (%) ([11]; insects released 7 days after treatment): 86.7%
